pIC50: −log10 of the molar value.
Key:
[1] = target: H1047R PIK3CA enzyme (Homo sapiens, UniProt P42336, H1047R); assay: ADP-Glo Biochemical PIK3CA Kinase Assay
[2] = cells; conditions: Homo sapiens, MCF-10A, read-out: MCF10A IC50

H1047R PIK3CA enzyme, sequence (P42336 whole entry H1047R): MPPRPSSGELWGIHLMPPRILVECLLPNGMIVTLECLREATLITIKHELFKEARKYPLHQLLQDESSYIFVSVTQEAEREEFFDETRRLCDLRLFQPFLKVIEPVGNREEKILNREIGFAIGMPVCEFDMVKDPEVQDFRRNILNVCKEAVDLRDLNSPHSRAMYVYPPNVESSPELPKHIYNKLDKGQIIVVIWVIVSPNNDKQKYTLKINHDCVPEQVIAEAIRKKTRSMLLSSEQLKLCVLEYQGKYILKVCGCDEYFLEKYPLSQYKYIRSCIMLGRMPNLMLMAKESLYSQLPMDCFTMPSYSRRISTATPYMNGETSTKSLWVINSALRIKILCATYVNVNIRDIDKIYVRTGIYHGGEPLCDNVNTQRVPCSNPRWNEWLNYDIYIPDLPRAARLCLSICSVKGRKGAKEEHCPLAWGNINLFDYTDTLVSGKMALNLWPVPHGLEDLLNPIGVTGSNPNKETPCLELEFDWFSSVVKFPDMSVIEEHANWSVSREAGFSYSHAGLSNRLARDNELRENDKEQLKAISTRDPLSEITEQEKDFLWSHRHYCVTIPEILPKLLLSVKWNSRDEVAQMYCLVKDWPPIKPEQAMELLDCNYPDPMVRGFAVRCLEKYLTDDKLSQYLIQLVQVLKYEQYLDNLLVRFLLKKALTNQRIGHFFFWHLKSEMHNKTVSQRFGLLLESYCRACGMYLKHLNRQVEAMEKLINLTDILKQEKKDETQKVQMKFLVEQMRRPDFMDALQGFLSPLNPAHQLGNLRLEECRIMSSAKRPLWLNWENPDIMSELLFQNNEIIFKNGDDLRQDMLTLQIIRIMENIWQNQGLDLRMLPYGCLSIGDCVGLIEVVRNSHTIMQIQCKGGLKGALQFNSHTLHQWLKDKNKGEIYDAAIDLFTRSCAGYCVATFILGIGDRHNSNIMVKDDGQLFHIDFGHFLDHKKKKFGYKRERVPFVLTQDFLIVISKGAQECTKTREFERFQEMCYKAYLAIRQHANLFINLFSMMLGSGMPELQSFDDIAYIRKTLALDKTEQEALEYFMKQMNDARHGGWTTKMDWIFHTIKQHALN
H1047R PIK3CA enzyme, sequence (P27986 whole entry partner): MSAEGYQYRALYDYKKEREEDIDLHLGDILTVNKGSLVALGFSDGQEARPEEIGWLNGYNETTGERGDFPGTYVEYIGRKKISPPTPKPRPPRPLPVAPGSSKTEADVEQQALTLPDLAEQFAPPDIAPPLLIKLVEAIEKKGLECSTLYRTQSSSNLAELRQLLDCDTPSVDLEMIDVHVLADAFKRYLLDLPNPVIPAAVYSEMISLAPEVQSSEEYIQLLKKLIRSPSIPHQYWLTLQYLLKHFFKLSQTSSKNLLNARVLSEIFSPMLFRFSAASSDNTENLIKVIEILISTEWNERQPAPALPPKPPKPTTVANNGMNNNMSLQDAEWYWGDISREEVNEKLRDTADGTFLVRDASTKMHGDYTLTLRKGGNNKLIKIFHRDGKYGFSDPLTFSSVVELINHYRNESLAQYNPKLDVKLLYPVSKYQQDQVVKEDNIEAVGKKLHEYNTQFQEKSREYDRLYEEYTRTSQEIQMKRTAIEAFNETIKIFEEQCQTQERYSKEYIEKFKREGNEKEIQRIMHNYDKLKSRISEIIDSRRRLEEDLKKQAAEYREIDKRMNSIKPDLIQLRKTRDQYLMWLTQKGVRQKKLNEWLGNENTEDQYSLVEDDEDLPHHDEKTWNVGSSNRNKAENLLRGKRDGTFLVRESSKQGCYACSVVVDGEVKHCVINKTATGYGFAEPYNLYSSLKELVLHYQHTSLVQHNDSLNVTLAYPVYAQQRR

SMILES | pIC50 [1] | pIC50 [2]
Nc1cc(NC(=O)c2cc(F)cc(C(F)(F)F)c2)c2c(c1)C(=O)NC2c1cc(F)ccc1Cl (stereo not shown) [Compound I-125] | ≥ 7.00 | > 6.00
O=C(Nc1cc(-c2nc3ncccc3[nH]2)cc2c1C(c1cc(F)ccc1Cl)NC2=O)c1cc(F)cc(C(F)(F)F)c1 (stereo not shown) [Compound I-1026] | ≥ 7.00 | > 6.00
O=C(Nc1cc(-c2cn3ccnc3cn2)cc2c1C(c1cc(F)ccc1Cl)NC2=O)c1cc(F)cc(C(F)(F)F)c1 (stereo not shown) [Compound I-946] | ≥ 7.00 | > 6.00
O=C(Nc1cc(-c2cnn(C3CNC3)c2)cc2c1C(c1cc(F)ccc1Cl)NC2=O)c1cc(F)cc(C(F)(F)F)c1 (stereo not shown) [Compound I-903] | ≥ 7.00 | 4.44 to 5.00
O=C(Nc1cc(Nc2cc[nH]n2)cc2c1C(c1cc(F)ccc1Cl)NC2=O)c1cc(F)cc(C(F)(F)F)c1 (stereo not shown) [Compound I-1112] | ≥ 7.00 | > 6.00
COc1nccc(-c2cc(NC(=O)c3cc(F)cc(C(F)(F)F)c3)c3c(c2)C(=O)NC3c2cc(F)ccc2Cl)n1 (stereo not shown) [Compound I-1105] | ≥ 7.00 | > 6.00
O=C(Nc1cc(Br)cc2c1C(c1cc(F)ccc1C(F)(F)F)NC2=O)c1cc(F)cc(C(F)(F)F)c1 (stereo not shown) [Compound I-1014] | ≥ 7.00 | > 6.00
CNC(=O)c1cc(NC(=O)c2cc(F)cc(C(F)(F)F)c2)c2c(c1)C(=O)NC2c1cc(F)ccc1Cl (stereo not shown) [Compound I-493] | ≥ 7.00 | > 6.00
O=C1N[C@@H](c2cc(F)ccc2Cl)c2c(NC(=O)N3C[C@@](O)(C(F)F)c4ccccc43)cccc21 (single isomer, unassigned) [Compound I-2487] | ≥ 7.00 | > 6.00
N#CC1(COc2cc(NC(=O)N3CC(O)c4cc(F)ccc43)c3c(c2)C(=O)NC3c2cc(F)ccc2Cl)CC1 (mixture of isomers) [Compound I-2489] | ≥ 7.00 | 5.00 to 5.30
COc1nccc(N2CC(c3cc(NC(=O)c4cc(F)cc(C(F)(F)F)c4)c4c(c3)C(=O)NC4c3cc(F)ccc3Cl)C2)n1 (stereo not shown) [Compound I-1162] | ≥ 7.00 | > 6.00
N#Cc1cc(NC(=O)N2CC(O)(C(F)(F)F)c3cc(F)ccc32)c2c(c1)C(=O)NC2c1cc(F)ccc1Cl (stereo not shown) [Compound I-2469] | ≥ 7.00 | > 6.00
O=C(Nc1cc(-n2ccnc2)cc2c1C(c1cc(F)ccc1Cl)NC2=O)c1cc(F)cc(C(F)(F)F)c1 (stereo not shown) [Compound I-1015] | ≥ 7.00 | > 6.00
Cc1ccccc1C1NC(=O)c2cc(NC(C)C)cc(NC(=O)c3csc4ccccc34)c21 (stereo not shown) [Compound I-53] | ≥ 7.00 | > 6.00
CC1(Cc2cc(NC(=O)N3C[C@](O)(C(F)(F)F)c4cc(F)ccc43)c3c(c2)C(=O)N[C@@H]3c2cc(F)ccc2Cl)COC1 (single isomer, unassigned) [Compound I-2657] | ≥ 7.00 | > 6.00
O=C1N[C@@H](c2cc(F)ccc2Cl)c2c(NC(=O)N3C[C@@H](O)c4cc(F)ccc43)cc(-c3cnn(C(F)F)c3)cc21 (single isomer, unassigned) [Compound I-2477] | ≥ 7.00 | > 6.00
C[C@]1(O)CN(C(=O)Nc2cccc3c2[C@H](c2cc(F)ccc2Cl)NC3=O)c2ccccc21 (single isomer, unassigned) [Compound I-2205] | ≥ 7.00 | > 6.00
[2H]C1(c2cc(F)ccc2Cl)NC(=O)c2cccc(NC(=O)N3CC(O)(C(F)(F)F)c4cc(F)ccc43)c21 (stereo not shown) [Compound I-2648] | ≥ 7.00 | > 6.00
O=C(Nc1cc(N2CCn3ncnc3C2)cc2c1C(c1cc(F)ccc1Cl)NC2=O)c1cc(F)cc(C(F)(F)F)c1 (stereo not shown) [Compound I-1040] | ≥ 7.00 | 5.30 to 6.00
O=C(Nc1cc(-c2ccncc2F)cc2c1C(c1cc(F)ccc1Cl)NC2=O)c1cc(F)cc(C(F)(F)F)c1 (stereo not shown) [Compound I-887] | ≥ 7.00 | > 6.00
CNc1cc(NC(=O)N2CC(O)(C(F)(F)F)c3cc(F)ccc32)c2c(c1C#N)C(=O)NC2c1cc(F)ccc1Cl (stereo not shown) [Compound I-2587] | ≥ 7.00 | 5.30 to 6.00
CC(C)(O)c1cc(NC(=O)c2cc(F)cc(C(F)(F)F)c2)c2c(c1)C(=O)N[C@H]2c1cc(F)ccc1C(F)F [Compound I-264] | ≥ 7.00 | 5.30 to 6.00
[2H]C1(c2ccccc2C)NC(=O)c2cccc(NC(=O)c3csc4ccccc34)c21 (stereo not shown) [Compound I-25] | ≥ 7.00 | 5.30 to 6.00
O=C(Nc1cc(-c2cn3ncnc3cn2)cc2c1C(c1cc(F)ccc1C(F)F)NC2=O)c1cc(F)cc(Cl)c1 (stereo not shown) [Compound I-2201] | ≥ 7.00 | 5.30 to 6.00
O=C(Nc1cc(-n2cccn2)cc2c1C(c1cc(F)ccc1Cl)NC2=O)c1cc(F)cc(C(F)(F)F)c1 (stereo not shown) [Compound I-960] | ≥ 7.00 | > 6.00
O=C(Nc1cc(-c2n[nH]c3cccnc23)cc2c1C(c1cc(F)ccc1Cl)NC2=O)c1cc(F)cc(C(F)(F)F)c1 (stereo not shown) [Compound I-936] | ≥ 7.00 | > 6.00

From US12581252B2, “Substituted pyrrolo[3,4-b]pyridines as PI3K-α inhibitors” (Relay Therapeutics, Inc., priority 2020, dated 2026)
